{"source": "patent US20220401423A1", "about": "“METHODS FOR TREATING INFLAMMATORY BOWEL DISEASE” (Angion Biomedica Corp., priority 2019, published 2022)", "key": {"collagen levels": {"tested_on": "collagen levels", "assay": "Antifibrotic activity, collagen levels (FIG. 23)", "details": "model not stated"}, "[1]": {"tested_on": "Acetic acid-induced colitis", "assay": "Acetic acid (AA) induced colitis mouse model", "assay_type": "in vivo", "text": "Acetic acid-induced colitis is a common experimental animal model for IBD. Animals treated with acetic acid develop many pathological and histopathological characteristics in common with human ulcerative colitis. Rectal administration of acetic acid damages the mucosal epithelium and induces ulcerative colitis. The severity of the mucosal lesions that develop in acetic acid-induced colitis depends on the acetic acid concentration and the length of exposure. For example, injection of 25% acetic acid (AA) into the gastric lumen causes larger ulcerative lesions than injection of 5% acetic acid. Different concentrations of acetic acid and different exposure times have been reported to induce IBD in a rat model. Transmural necrosis in all layers of the bowel wall, severe neutrophil infiltration of the intestinal tissue, goblet cell depletion, edema, and submucosal ulceration are common manifestations of this model. Bloody diarrhea, reduction of the intestinal mucus, decreased nucleic acid (DNA and RNA) and total protein content, and increased colon weight and vascular permeability have also been observed. […] Acetic acid-induced colitis is also associated with changes NF-κB, inhibitor of κB (IκB) and IκB kinase expression.\nMale CD-1 mice were infused with 4% AA in saline in 150 μL volume through rectal enema under isoflurane anesthesia. A sham group (n=6) received an equivalent volume of saline.\nThe remaining AA-treated mice (n=9 for each group) were then randomized to vehicle and/or Compound 1 treatment at 50 mg/kg, PO, BID for 3 days."}, "TNBS-induced colitis [2]": {"tested_on": "TNBS-induced colitis", "assay": "TNBS-induced IBD/acute colitis mouse model, dose response (Example 3)", "assay_type": "in vivo", "text": "Intracolonic administration of TNBS (2,4,6-trinitrobenzenesulfonic acid)/ethanol induces a severe illness characterized by bloody diarrhea and a dramatic loss of body weight during the first week with increased colon damage score (Mateus, V., et al. Clin. Exp. Gastroenterol. 2018; 11:325-334). TNBS-induced colitis, characteristic of acute colitis and the early phase of IBD, is a commonly utilized animal model in rodents that shares significant properties with human Crohn's disease. Advantages of this model include reproducibility and technical simplicity (Filipescu, I. E., et al. PLoS One 2018 Aug. 23; 13(8):e0202929). The use of TNBS-induced colitis has been valuable in elucidating the mechanisms that mediate disease immune-pathogenesis. TNBS-induced colitis is a well-validated animal model to assess compounds with potential therapeutic effects such as anti-TNFα, corticosteroids, natural compounds and traditional medicine (Mateus 2018; Filipescu 2018; Wirtz, S. et al. Nat. Protoc. 2017 July; 12(7):1295-1309). Compound 1 was therefore tested in the well-established model of TNBS-induced IBD/Acute Colitis.\nIn this IBD model, 2,4,6-trinitrobenzenesulfonic acid (TNBS) was used to induce disease. The inflammatory bowel disease (IBD)/acute colitis model was conducted in male CD-1 mice, body weights 30-35 grams, from Charles River Laboratories (CRL). After receipt from the vendor, animals were acclimatized to the animal facility at least 5 days following the animal facility standard operating procedures. All animals were fed the normal chow diet, had access to water ad libitum and housed in a single room of the animal facility with a 12:12 hr light-dark cycle and independent ventilation, temperature and humidity control.\nCompound 1 was dissolved in distilled water at 0.9 mg/mL, 2.7 mg/mL and 8.1 mg/mL, and 200 μL was administered via oral gavage into each mouse.\nMale CD-1 mice were starved overnight. Then, mice (n=33) were infused with […] (2 mg/mouse) in 50% ethanol in a 100 μL volume via rectal enema under isoflurane anesthesia. A sham group (n=6) received an equal volume of 50% ethanol. […] Remaining Sham (n=4) and TNBS mice (n=7/group) were randomized to vehicle or Compound 1 treatment at 5 mg/kg, 15 mg/kg, and 45 mg/kg, PO, BID for 4 days.\nAfter 4 days of Compound 1 or vehicle treatment, mice were sacrificed. Body weight (FIG. 5), colon length (FIG. 6 and FIG. 8), colon weight (FIG. 7), and gross morphological score/disease severity scores (FIG. 9; normal=0 and severe=4) were recorded. Blood/serum was collected. The mid and distal part of the colon was fixed in 10% neutral buffered formalin and the proximal part of the colon was snap frozen in liquid nitrogen and stored at minus 80° C. until use.\nHistological scoring. After overnight fixation in formalin, tissues were dehydrated (graded alcohols) and cleared (xylene) before being embedded in paraffin wax. Sections of tissue were cut and stained with hematoxylin and eosin (H & E) and scored in a blinded manner (FIG. 10). Histological scoring was based on a semi-quantitative scoring system as published (Lab Invest. 1993 August; 69(2):238-49). The following were ranked: the extent of the destruction of normal mucosal architecture (0, normal; 1, 2, and 3, mild, moderate, and extensive damage, respectively), presence and degree of cellular infiltration (0, normal; 1, 2, and 3, mild, moderate, and transmural infiltration, respectively), extent of muscle thickening (0, normal; 1, 2, and 3, mild, moderate, and extensive thickening, respectively), crypt damage/goblet cell depletion (0, no loss, 1, 2, 3 for mild, moderate and extensive loss of goblet cells respectively (FIG. 11). The scores for each feature were summed with a maximum possible colon injury score of 12 (FIG. 12).\nAlcian Blue/Fast red staining. Formalin fixed, paraffin embedded colon tissue sections were used for Alcian blue staining to evaluate crypt damage/goblet cell loss. […]"}, "TNBS-induced colitis [3]": {"tested_on": "TNBS-induced colitis", "assay": "TNBS-induced colitis mouse model, 50 mg/kg (Example 5)", "assay_type": "in vivo", "experimental": "Using the same TNBS mouse model for IBD as described in Example 3, an experiment was performed with a 50 mg/kg dose of Compound 1, as described below.\nMale CD-1 mice were infused with TNBS (2 mg/mouse) in 45% ethanol and 5% PBS in 150 μL volume through rectal enema under isoflurane anesthesia. A sham group (n=6) received an equal volume of 45% ethanol and PBS mixture.\nRemaining TNBS mice (n=12/group) were randomized to vehicle or Compound 1 at 50 mg/kg, PO, BID for 3 days."}, "[4]": {"tested_on": "DSS-induced chronic colitis/IBD", "assay": "DSS-induced chronic colitis/IBD mouse model", "assay_type": "in vivo", "details": "50 mg/kg, PO, BID, started 72 hours after DSS, 4 weeks; for colon length: compared to DSS-vehicle cohort", "text": "DSS is a sulfated polymer that alters tight junction proteins, leading to the disruption of the intestinal barrier, and is toxic to epithelial cells. Results obtained in DSS-induced animal IBD models have helped to understand the pathogenesis of IBD and to screen potential therapeutic agents. DSS-induced IBD is simple and reproducible and results in symptoms resembling those of ulcerative colitis. The development of acute, chronic, or relapsing symptoms of IBD is dose-dependent, and the molecular weight of the DSS is key not only in the induction of colitis but also in the location of induction. […] Various DSS dosage and duration are used to induce IBD in some animal models. Following DSS administration, animals usually develop colitis with weight loss and severe, bloody diarrhea. DSS colitis is characterized by mucosal ulceration, leukocyte infiltration, intestinal crypt distortion and epithelial hyperplasia.\nAdult male CD-1 mice were fed 3% DSS in drinking water for 5 days with alternate cycles of normal drinking water for 5 days and continued a total of 3 DSS cycles in 4 weeks. This model has been established to induce chronic colitis/IBD. Vehicle (n=10/group) or Compound 1 (50 mg/kg, PO, BID) were administered 72 hours after DSS and continued treatment for 4 weeks, then all mice were sacrificed. A small group (n=6) with normal drinking water was included as a sham control. Gross morphological and histopathological end points were evaluated. Additionally, tissue from the middle colon (100 mg) from all groups was subjected to hydroxyproline assay for collagen estimation as a fibrotic end point."}, "[5]": {"details": "50 mg/kg, PO, BID for 3 days, started 72 hours after AA, compared to vehicle cohort"}, "[6]": {"details": "15 mg/kg and 45 mg/kg, BID, PO, 4 days, started 3 days after TNBS"}, "[7]": {"details": "15 mg/kg and 45 mg/kg, BID, PO, 4 days, compared to pre-treatment and vehicle treated animals"}, "[8]": {"details": "50 mg/kg, PO, BID for 3 days, started 72 hours after TNBS, compared to vehicle cohort"}}}
{"compound": "COC(=O)c1ccc2c(n1)NC(=O)/C2=C(\\Nc1ccc(N(C)C(=O)CN2CCN(C)CC2)cc1)c1ccccc1", "note": "[Compound 1, (Z)-methyl 3-(((4-(N-methyl-2-(4-methylpiperazin-1-yl)acetamido)phenyl)amino)(phenyl)methylene)-2-oxo-2,3-dihydro-1H-pyrrolo[2,3-b]pyridine-6-carboxylate]", "values": [{"measurement": "collagen levels (antifibrotic activity)", "setting": "collagen levels", "result": "reduced"}, {"measurement": "decrease in colon length", "setting": "[1]; [5]", "result": "significantly mitigated the decrease"}, {"measurement": "gross morphological colon damage", "setting": "[1]; [5]", "result": "significantly mitigated"}, {"measurement": "histopathological colon damage (mucosal wall thickness, crypt/villi architecture)", "setting": "[1]; [5]", "result": "significantly mitigated"}, {"measurement": "AA-induced colitis (colon length, colon gross damage score, histopathological damage score, Alcian blue, H&E staining)", "setting": "[1]; FIG. 2A-2E", "result": "significantly decreased"}, {"measurement": "MPO-staining of colon tissue", "setting": "TNBS-induced colitis [2]; 5 mg/kg and higher, BID, PO, 4 days, versus TNBS+vehicle treated animals", "result": "significantly decreased"}, {"measurement": "body weight", "setting": "TNBS-induced colitis [2]; [6]", "result": "significantly restored"}, {"measurement": "colon length", "setting": "TNBS-induced colitis [2]; [6]", "result": "significantly restored"}, {"measurement": "colon weight", "setting": "TNBS-induced colitis [2]; [6]", "result": "significantly restored"}, {"measurement": "TNBS-induced goblet cell loss (Alcian Blue staining)", "setting": "TNBS-induced colitis [2]; [7]", "result": "significantly reduced"}, {"measurement": "colon histology (H&E histological scoring)", "setting": "TNBS-induced colitis [2]; [7]", "result": "markedly improved"}, {"measurement": "Disease Severity Index", "setting": "TNBS-induced colitis [2]; 15 mg/kg and 45 mg/kg, BID, PO, 4 days, score 0 (normal)-4 (severe)", "result": "marked improvement"}, {"measurement": "F4/80-staining of colon tissue", "setting": "TNBS-induced colitis [2]; 15 mg/kg and higher, BID, PO, 4 days, versus TNBS+vehicle treated animals", "result": "significantly decreased"}, {"measurement": "IBD symptoms (body weight, colon length, colon weight, disease severity index)", "setting": "TNBS-induced colitis [2]; FIG. 5-9", "result": "recover from IBD symptoms"}, {"measurement": "colon architecture (Alcian blue staining for goblet cells of crypt/villi)", "setting": "TNBS-induced colitis [3]; [8]", "result": "preserved"}, {"measurement": "colon damage score", "setting": "TNBS-induced colitis [3]; [8]", "result": "decreased"}, {"measurement": "colon histopathological score", "setting": "TNBS-induced colitis [3]; [8]", "result": "decreased"}, {"measurement": "colon length", "setting": "TNBS-induced colitis [3]; [8]", "result": "restored"}, {"measurement": "mortality", "setting": "TNBS-induced colitis [3]; [8]", "result": "significantly decreased"}, {"measurement": "TNBS-induced increase in serum cytokines (interleukin-1α, TNFα, PDGF)", "setting": "TNBS-induced colitis [3]; 50 mg/kg, PO, BID for 3 days, serum", "result": "significantly blocked"}, {"measurement": "IBD symptoms (colon length, colon gross damage score, Alcian blue staining of goblet cells, colon histopathological score)", "setting": "TNBS-induced colitis [3]; FIG. 25A-25F", "result": "recover from IBD symptoms"}, {"measurement": "survival", "setting": "TNBS-induced colitis [3]; TNBS induced colitis mortality model, FIG. 3", "result": "increased"}, {"measurement": "macroscopic colon damage score (appearance, inflammation, rectal bleeding)", "setting": "[4]", "result": "decreased"}, {"measurement": "histopathological injury score (crypt damage, epithelial erosion, inflammatory cell infiltration)", "setting": "[4]; H&E stained colon sections", "result": "decreased"}, {"measurement": "colon length", "setting": "[4]", "result": "significantly increased"}, {"measurement": "colon length", "setting": "[4]; listed as test compound", "result": "significantly restored"}, {"measurement": "colonic hydroxyproline (HYP)", "setting": "[4]; middle colon tissue", "result": "decreased"}]}
